According to patent publication US5817667A, “Compounds and methods for the treatment of cancer” (University of Georgia Research Foudation, priority 1994, dated 1998):

Legend:
[1] = test system: OVCAR-3; experiment: NCI cancer screening, growth inhibition (SRB); type: cell-based; settings: Homo sapiens, OVCAR-3, 48 h, read-out: Log10 GI50 (converted)
[2] = test system: MDA-MB-231/ATCC; experiment: cells; settings: Homo sapiens, MDA-MB-231, 48 h, read-out: Log10 GI50 (converted)
[3] = test system: CCRF-CEM; experiment: NCI cancer screening, growth inhibition (SRB); type: cell-based; settings: Leukemia, 48 hours exposure
[4] = test system: BT-549; experiment: NCI cancer screening, growth inhibition (SRB); type: cell-based; settings: Breast Cancer, 48 hours exposure
[5] = test system: SR; experiment: NCI cancer screening, growth inhibition (SRB); type: cell-based; settings: Leukemia, 48 hours exposure
[6] = test system: T-47D; experiment: NCI cancer screening, growth inhibition (SRB); type: cell-based
[7] = test system: UO-31; experiment: NCI cancer screening, growth inhibition (SRB); type: cell-based; settings: Renal Cancer, 48 hours exposure
[8] = test system: K-562; experiment: NCI cancer screening, growth inhibition (SRB); type: cell-based; settings: Leukemia, 48 hours exposure
[9] = test system: NCI-H522; experiment: NCI cancer screening, growth inhibition (SRB); type: cell-based; settings: Non-Small Cell Lung Cancer, 48 hours exposure
[10] = test system: RPMI-2.26; experiment: NCI cancer screening, growth inhibition (SRB); type: cell-based; settings: 48 h, read-out: Log10 GI50 (converted)
[11] = test system: UACC-62; experiment: NCI cancer screening, growth inhibition (SRB); type: cell-based; settings: Melanoma, 48 hours exposure
[12] = test system: mice; experiment: Toxicity to mice in the P388 leukemia protocol; type: in vivo, BDF1 mice; settings: 75 mg/kg/dose ip, twice daily for five days
Protocol: 10^6 Leukemia P388 cells were implanted ip to BDF1 mice obtained from Southern Research Institute, Alabama. L(-)-OddC was administered ip twice daily for five days starting one day after tumor cell implantation.

[13] = test system: MDA-MB-231/ATCC; settings: Breast Cancer; 48 hours exposure
[14] = cells; settings: 48 h, read-out: Log10 GI50 (converted)
[15] = test system: NCI-H23; experiment: NCI cancer screening, growth inhibition (SRB); type: cell-based; settings: Non-Small Cell Lung Cancer, 48 hours exposure
[16] = test system: Leukemia P388 cells; experiment: In vivo treatment of leukemia P388 cells implanted ip in BDF1 mice
[17] = test system: SN12C; experiment: NCI cancer screening, growth inhibition (SRB); type: cell-based; settings: Renal Cancer, 48 hours exposure
[18] = test system: LOX D6VI; experiment: NCI cancer screening, growth inhibition (SRB); type: cell-based; settings: Melanoma, 48 hours exposure
[19] = test system: A549/ATCC; experiment: NCI cancer screening, growth inhibition (SRB); type: cell-based; settings: Non-Small Cell Lung Cancer, 48 hours exposure
[20] = test system: UACC-257; experiment: NCI cancer screening, growth inhibition (SRB); type: cell-based
[21] = test system: SP-295; experiment: NCI cancer screening, growth inhibition (SRB); type: cell-based; settings: CNS Cancer, 48 hours exposure
[22] = test system: K2112; experiment: cells; settings: 48 h, read-out: Log10 GI50 (converted)
[23] = test system: SK-MEL-28; experiment: NCI cancer screening, growth inhibition (SRB); type: cell-based; settings: Melanoma, 48 hours exposure
[24] = test system: MCF7; experiment: NCI cancer screening, growth inhibition (SRB); type: cell-based; settings: Breast Cancer, 48 hours exposure
[25] = test system: MDA-MB-435; experiment: NCI cancer screening, growth inhibition (SRB); type: cell-based; settings: Homo sapiens, MDA-MB-435, 48 h, read-out: Log10 GI50 (converted)
[26] = test system: HCT-15; experiment: NCI cancer screening, growth inhibition (SRB); type: cell-based; settings: Colon Cancer, 48 hours exposure
[27] = test system: SNB-19; experiment: NCI cancer screening, growth inhibition (SRB); type: cell-based; settings: CNS Cancer, 48 hours exposure
[28] = test system: TK-30; experiment: NCI cancer screening, growth inhibition (SRB); type: cell-based
[29] = test system: HT29; experiment: NCI cancer screening, growth inhibition (SRB); type: cell-based
[30] = test system: MDA-N; experiment: NCI cancer screening, growth inhibition (SRB); type: cell-based; settings: Breast Cancer, 48 hours exposure
[31] = test system: RXF-393; experiment: NCI cancer screening, growth inhibition (SRB); type: cell-based; settings: Renal Cancer, 48 hours exposure
[32] = test system: HS578T; experiment: NCI cancer screening, growth inhibition (SRB); type: cell-based
[33] = test system: PC-3; experiment: NCI cancer screening, growth inhibition (SRB); type: cell-based; settings: Prostate Cancer, 48 hours exposure
[34] = Breast Cancer, 48 hours exposure
[35] = 25 mg/kg ip, twice a day, days 1 to 5
[36] = read-out: Log10 GI50 (converted)

Structure (SMILES): Nc1ccn([C@@H]2CO[C@H](CO)O2)c(=O)n1 [(-)-OddC, (-)-(2S,4S)-1-(2-hydroxymethyl-1,3-dioxolan-4-yl)cytosine]
- GI50 [1]: 36.3 µM
- GI50 [2]: > 100 µM
- GI50 ([3]; Homo sapiens, CCRF-CEM, read-out: Log10 GI50 (converted)): 229 nM
- Log10 TGI [3]: > -4.00
- Log10 TGI [4]: > -4.00
- GI50 ([4]; Homo sapiens, BT-549, read-out: Log10 GI50 (converted)): 25.7 µM
- GI50 ([5]; Homo sapiens, SR, read-out: Log10 GI50 (converted)): 1120 nM
- Log10 TGI [5]: > -4.00
- Log10 TGI [6, 34]: > -4.00
- GI50 ([6]; Homo sapiens, T47D, 48 h, read-out: Log10 GI50 (converted)): > 100 µM
- GI50 ([7]; Homo sapiens, UO-31, read-out: Log10 GI50 (converted)): 2510 nM
- Log10 TGI [7]: > -4.00
- GI50 ([8]; Homo sapiens, K562, read-out: Log10 GI50 (converted)): 25.7 µM
- Log10 TGI [8]: > -4.00
- GI50 ([9]; Homo sapiens, NCI-H522, read-out: Log10 GI50 (converted)): 871 nM
- Log10 TGI [9]: > -4.00
- GI50 [10]: 93.3 µM
- GI50 ([11]; Homo sapiens, UACC-62, read-out: Log10 GI50 (converted)): 2950 nM
- Log10 TGI [11]: > -4.00
- toxicity to the mice [12]: toxic to the mice
- Log10 TGI [13]: > -4.00
- GI50 [14]: > 100 µM
- GI50 ([15]; Homo sapiens, NCI-H23, read-out: Log10 GI50 (converted)): 12 µM
- Log10 TGI [15]: > -4.00
- Cures/Total (survivors equal or greater than 45 day life span) [16, 35]: 1/6
- ILS (Increased Life Span percent above control) [16, 35]: 103%
- Mean Survival Time ([16]; 25 mg/kg ip, twice a day, days 1 to 5 (control 13.3 days)): 27 days
- life span increase of the remaining five mice ([16]; 25 mg/kg/dose ip, twice daily for five days): 103%
- long term survivors ([16]; of six mice treated with 25 mg/kg/dose): one long term survivor
- GI50 ([17]; Homo sapiens, SN12C, read-out: Log10 GI50 (converted)): 537 nM
- Log10 TGI [17]: > -4.00
- Log10 TGI [18]: > -4.00
- GI50 [18, 36]: 407 nM
- GI50 ([19]; Homo sapiens, A549, read-out: Log10 GI50 (converted)): 977 nM
- Log10 TGI [19]: > -4.00
- GI50 ([20]; Homo sapiens, UACC-257, 48 h, read-out: Log10 GI50 (converted)): > 100 µM
- Log10 TGI ([20]; Melanoma, 48 hours exposure): > -4.00
- Log10 TGI [21]: > -4.00
- GI50 [21, 36]: 575 nM
- GI50 [22]: > 100 µM
- GI50 ([23]; Homo sapiens, SK-MEL-28, read-out: Log10 GI50 (converted)): 49 µM
- Log10 TGI [23]: > -4.00
- Log10 TGI [24]: > -4.00
- GI50 ([24]; Homo sapiens, MCF7, read-out: Log10 GI50 (converted)): 1120 nM
- GI50 [25]: 24 µM
- Log10 TGI [26]: > -4.00
- GI50 ([26]; Homo sapiens, HCT-15, read-out: Log10 GI50 (converted)): 4.07 µM
- Log10 TGI [27]: > -4.00
- GI50 ([27]; Homo sapiens, SNB-19, read-out: Log10 GI50 (converted)): 1950 nM
- GI50 ([28]; 48 h, read-out: Log10 GI50 (converted)): > 100 µM
- Log10 TGI ([28]; Renal Cancer, 48 hours exposure): > -4.00
- Log10 TGI ([29]; Colon Cancer, 48 hours exposure): > -4.00
- GI50 ([29]; Homo sapiens, HT-29, 48 h, read-out: Log10 GI50 (converted)): > 100 µM
- Log10 TGI [30]: > -4.00
- GI50 ([30]; Homo sapiens, MDA-N, read-out: Log10 GI50 (converted)): 46.8 µM
- GI50 ([31]; Homo sapiens, RXF 393, read-out: Log10 GI50 (converted)): 676 nM
- Log10 TGI [31]: > -4.00
- Log10 TGI [32, 34]: > -4.00
- GI50 ([32]; Homo sapiens, Hs-578T, 48 h, read-out: Log10 GI50 (converted)): > 100 µM
- GI50 ([33]; Homo sapiens, PC-3, read-out: Log10 GI50 (converted)): 513 nM
- Log10 TGI [33]: > -4.00
